# Where “and” joins values, the source holds several entries; their conditions need not be identical. Identical values can stand only once. Like-named read-outs stand apart in the source and are kept apart here.
# How the values were obtained:
# [1] = target: T1, PKA-N-HiBiT (Homo sapiens, UniProt P17612); experiment: SDR assay, PKA-N-HiBiT; conditions: for SDR Ave Max Response / EC50: PKA-N-HiBiT qHTS, SDR assay; for SDR Ave Max Response: average maximal response; for EC50: read-out: PKA SDR Ave SDR50, average
# [2] = system: ABL1; conditions: cited from earlier work
# [3] = system: PKA; conditions: annotation yes/no for kinase library compound; source not given; cited from earlier work
# [4] = target: T2, ABL1-N-HiBiT kinase domain (Homo sapiens, UniProt P00519); experiment: SDR assay, ABL1-N-HiBiT; conditions: for SDR output: ABL1-N-HiBiT, Log [Compound]; for ABL1 SDR pSDR50: heatmap data, 128 kinase inhibitors; for EC50: read-out: SDR Ave SDR50, average, unit inferred
# T2 sequence (P00519 233-500): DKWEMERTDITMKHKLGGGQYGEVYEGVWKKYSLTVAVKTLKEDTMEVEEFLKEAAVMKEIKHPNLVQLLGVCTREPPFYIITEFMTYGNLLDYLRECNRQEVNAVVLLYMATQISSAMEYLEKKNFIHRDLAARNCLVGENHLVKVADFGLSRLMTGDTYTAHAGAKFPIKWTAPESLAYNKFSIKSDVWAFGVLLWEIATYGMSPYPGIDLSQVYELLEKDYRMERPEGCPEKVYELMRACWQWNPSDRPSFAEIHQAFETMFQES
# [5] = target: T1, PKA-N-HiBiT; experiment: PKA peptide phosphorylation, Kinase-Glo Plus (KGP) assay, PKA-N-HiBiT; type: biochemical; design: containing amino acids Gly2-Phe351; His10 (N); made in house; host or cells: E. coli BL21(DE3); conditions: for CC-v2: curve class; for IC50: PKA-N-HiBiT qHTS, Kinase-Glo Plus, average, read-out: PKA KGP Ave IC50
# Method: (§1) Kinase activity was measured by ATP depletion using the Kinase-Glo Plus (KGP) assay kit (Promega) in 1536-well plate format. […] Controls were added with a Mosquito dispenser (STP LabTech) while compounds were transferred with a pintool to each plate as described in Supplementary Data 8 and incubated for 30 min at ambient temperature. […] Following a 10 min incubation, KGP luminescence was measured with a ViewLux plate reader with 1 sec exposure, with medium to high gain setting, slow speed and 2x binning. Data were normalized to the average of no enzyme control column as 100% kinase inhibition and DMSO control column as 100% phosphorylation reaction progress. See Supplementary Table 5 for additional details.
# (§2) Protocol for Abelson kinase (ABL1) and protein kinase A (PKA) peptide phosphorylation assays
# (§3) Supplementary Table 5: Protocol for Abelson kinase (ABL1) and protein kinase A (PKA) peptide phosphorylation assays Sequence Param eter Value Description
# (§4) 3 Incubation 30 m in Incubate enzym e + com pounds at am bient tem p for 30 m in, protected from light […]
# (§5) protocol; dispensed with BioRaptr 2
# [6] = target: T2, ABL1-N-HiBiT kinase domain; experiment: ABL1 peptide phosphorylation, Kinase-Glo Plus (KGP) assay, ABL1-N-HiBiT; type: biochemical; design: containing amino acid residues Asp233-Ser500; His10 (N); made in house; host or cells: E. coli BL21(DE3); conditions: for ABL1 KGP pIC50: ABL1, Kinase-Glo Plus (KGP), heatmap data, 128 kinase inhibitors; for IC50: ABL1-N-HiBiT qHTS, average, unit inferred, read-out: ABL1 KGP Ave IC50
# Method: as §1, §2, §3, §4, §5
# [7] = target: T3, ABL1-C-HiBiT kinase domain (Homo sapiens, UniProt P00519); experiment: SDR assay, ABL1-C-HiBiT; conditions: for SDR output: ABL1-C-HiBiT, Log [Compound]
# T3 sequence (P00519 233-500): T2 sequence (P00519 233-500)
# [8] = ABL1-N-HiBiT qHTS, average maximal SDR response
Compound,SDR Ave Max Response [1],Annotated ABL1 activity [2],Annotated PKA activity [3],"SDR Ave Max Response [4, 8]",other results
CC(C)(C)n1nc(-c2cccc3ccccc23)c2c(N)ncnc21 [1-Naphthyl PP1],10.40,yes,no,61.87,
Cn1c(=O)c2c(ncn2C)n(C)c1=O [Caffeine],-17.81,no,no,3.59,Efficacy ([5]; KGP Rep 1): -14.65; Hill Coef ([5]; KGP Rep 1): 2.85; Max Resp ([5]; KGP Rep 1): 7.79; CC-v2 ([5]; KGP Rep 1): 4
COc1cc2c(Oc3ccc4[nH]c(C)cc4c3F)ncnc2cc1OCCCN1CCCC1 [Cediranib],5.41,yes,no,,SDR Ave Max Response [4]: 72.22
O=C(NCCO)c1cccc(-c2cc(Nc3ccc(OC(F)(F)F)cc3)ncn2)c1 [GNF5],,,,,"Effect on enzyme catalysis ([6]; Log [Compound], M -4.51): 1.2 and 2.4; SDR output ([7]; M -4.20): 11.5 and 10.7; SDR output ([7]; M -5.41): 4.5 and 3.0; SDR output ([7]; M -5.71): 0.159 and 0.3; SDR output ([7]; M -7.21): 1.8 and 1.6; SDR output ([7]; M -7.52): 3.3 and 3.0; SDR output ([7]; M -7.82): 5.4 and 5.3; SDR output ([7]; M -8.12): 3.3 and 3.7; SDR output ([7]; M -8.42): 7.4 and 4.5; SDR output ([4]; M -4.51): -1.2; SDR output ([4]; M -8.12): 1.9 and 2.5; SDR output ([4]; M -8.42): 2.5; SDR output ([4]; M -8.72): 2.7 and 1.9"
"O=C(NCCO)c1cccc(-c2cc(Nc3ccc(OC(F)(F)F)cc3)ncn2)c1 [GNF-5, reference compound]",,,no,,detection in functional enzymatic ABL1 kinase assay (in words) ([6]; KGP assay): neither was identified; Emax ([1]; read-out: SDR Ave Max Response): 1.25%; detection in ABL1-C-HiBiT SDR assay (in words) [7]: beginning to detect; detection in ABL1-N-HiBiT SDR assay (in words) [4]: neither was identified; Emax ([4]; read-out: SDR Ave Max Response): 13.8%
COc1ccc(S(=O)(=O)N(C(C)=O)c2ccccc2/C=C/c2cc[n+]([O-])cc2)cc1 [HMN-214],5.93,no,no,8.52,
COc1cc(N2CCN(C)CC2)ccc1Nc1nc(N)c(C(=O)c2c(Cl)cccc2Cl)s1 [HMSL10089],-4.43,no,no,,SDR Ave Max Response [4]: 0.77
O=[N+]([O-])O[C@H]1CO[C@H]2[C@@H]1OC[C@H]2O[N+](=O)[O-] [Isosorbide dinitrate],6.02,no,no,6.72,
C/C(O)=C(\C#N)C(=O)Nc1cc(Br)ccc1Br [LFM-A13],-81.79,no,no,-82.68,EC50 [1]: 4.14 µM; PKA SDR Assay Mean (pSDR50) ([1]; without ATP): 5.40; ABL1 SDR pSDR50 [4]: 5.44; EC50 ([4]; ABL1-N-HiBiT qHTS): 3.72 µM
CCN(CC)CCOc1ccc(Nc2ncc3cc(-c4c(Cl)cccc4Cl)c(=O)n(C)c3n2)cc1.Cl.Cl.O [PD-166285 hydrate],-22.35,yes,no,51.60,
Nc1ncnc2c1c(-c1cnc3[nH]ccc3c1)nn2C1CCCC1 [PP-121],6.39,yes,yes,,
COc1ccccc1-c1c[nH]c2ncc(-c3cncc(C(=O)N(C)C)c3)cc12 [PPY A],11.97,yes,no,88.01,ABL1 KGP pIC50 [6]: 7.53; IC50 [6]: 0.0341 µM; ABL1 SDR pSDR50 [4]: 8.52; EC50 ([4]; ABL1-N-HiBiT qHTS): 0.00304 µM
CCN1/C(=C/C(C)=O)Sc2ccc(OC)cc21 [TG003],6.70,,no,9.57,"Efficacy ([6]; KGP Rep 1): 49.18; Hill Coef ([6]; KGP Rep 1): 4.96; Max Resp ([6]; KGP Rep 1): 37.84; CC-v2 ([6]; KGP Rep 1, curve class): 3; Efficacy ([5]; KGP Rep 1): 0.00; Max Resp ([5]; KGP Rep 1): 8.95; CC-v2 ([5]; KGP Rep 1): 4"
COc1cc2c(N3CCN(C(=O)Nc4ccc(OC(C)C)cc4)CC3)ncnc2cc1OCCCN1CCCCC1 [Tandutinib],7.68,no,no,,SDR Ave Max Response [4]: 63.54
N#Cc1cn([C@@H]2O[C@H](CO)[C@@H](O)[C@H]2O)c2ncnc(N)c12 [Toyocamycin],-0.53,no,no,72.44,ABL1 SDR pSDR50 [4]: 4.93; EC50 ([4]; ABL1-N-HiBiT qHTS): 12.8 µM
I-BET762,,no,,6.74,
PF-477736,33.34,,no,81.41,ABL1 KGP pIC50 [6]: 6.01; IC50 [6]: 1.04 µM; IC50 [5]: 5.32 µM; EC50 [1]: 1.29 µM; ABL1 SDR pSDR50 [4]: 6.38; EC50 ([4]; ABL1-N-HiBiT qHTS): 0.432 µM
PF-562271 HCl,40.60,,no,70.73,IC50 [6]: 5.86 µM; IC50 [5]: 45.5 µM; EC50 [1]: 4.56 µM; ABL1 SDR pSDR50 [4]: 4.94; EC50 ([4]; ABL1-N-HiBiT qHTS): 12 µM
